Experiment [1] has as its system HUVEC. As to the kind of experiment: HUVEC attachment to SAM spots presenting mutant ligand (Example 8). Type of experiment: cell-based, human. On the procedure:
Specifically, SAM array spots presenting mixed ligands were prepared as described above. SAM arrays presenting varied ligand densities of covalently immobilized VEGF receptor-binding peptide ([…], here referred to as “VR-BP”; SEQ ID NO:17) and varied ligand densities of the fibronectin-derived cell adhesion peptide (GRGDSP, SEQ ID NO:18) were used to probe for changes in HUVEC attachment, proliferation and tubulogenesis. Control over individual ligand density was achieved by mixing scrambled VR-BP and mutant GRGESP (SEQ ID NO:19) with functional VR-BP or GRGDSP (SEQ ID NO:18) peptides, respectively. Therefore, in a typical SAM array, SAMs were locally formed within spots using an alkanethiolate mixture of 94% HS—C11-EG3-OH and 6% HS—C11-EG6-COOH to create substrates with a total of 6% carboxylate groups for peptide conjugation. Next, to create a spot presenting 5% GRGDSP (SEQ ID NO:18) and 1% VR-BP, a 300 μM peptide solution with 250 μM GRGDSP (SEQ ID NO:18) and 50 μM VR-BP was used during peptide conjugation. […] As mentioned previously, ligand concentrations were measured using UV/Vis since all peptides either contained residues that absorbed strongly at 280 nm, or were engineered to contain tryptophan residues in the poly-glycine tail. […]

For the next experiment, the system named is hMSC. As to the kind of experiment: hMSC surface coverage over time on SAM spots presenting GRGDSP with BR-BP and HPG-BP. In kind it is cell-based, human. Particulars: low GRGDSP density SAM spots, cultured 20 days. The text has this:
In this SAM array approach, each spot was designed to contain the same total molar density (mol/cm^2) of peptide from spot to spot. Therefore, control over individual peptide density was achieved by mixing scrambled BR-BP and HPG-BP and mutant GRGESP (SEQ ID NO:19) peptides with functional BR-BP, HPG-BP or GRGDSP (SEQ ID NO:18) peptides, respectively. Therefore, in a typical SAM array, SAMs were locally formed within spots using an alkanethiolate mixture of 95% HS—C11-EG3-OH and 5% HS—C11-EG6-COOH to create substrates with a total of 5% carboxylate groups for peptide conjugation. Here, “X %” refers to the mole percent of alkanethiolate present during SAM formation and subsequently the approximate amount of an alkanethiolate present on the surface after SAM formation. To regulate the density of active peptide present in each spot, mutant and scramble versions of peptides were included during peptide conjugation. […] As mentioned previously, peptide concentrations were easily measured using UV/Vis since all peptides either contained residues that absorbed strongly at 280 nm, or were engineered to contain tryptophan residues in the poly-glycine tail. […]

In experiment [2] the test system is HUVEC. As to the kind of experiment: HUVEC proliferation (Click-it EdU) in response to soluble morphogens on SAM arrays. Type of experiment: cell-based, human. The settings on record: soluble, 10 ng/ml, 24 hours, m199 with 2% FBS, highest ligand density spots.
Experimental: Specifically, SAM array spots presenting mixed ligands were prepared as described above. SAM arrays presenting varied ligand densities of covalently immobilized VEGF receptor-binding peptide ([sequence], here referred to as “VR-BP”; SEQ ID NO:17) and varied ligand densities of the fibronectin-derived cell adhesion peptide (GRGDSP, SEQ ID NO:18) were used to probe for changes in HUVEC attachment, proliferation and tubulogenesis. Control over individual ligand density was achieved by mixing scrambled VR-BP and mutant GRGESP (SEQ ID NO:19) with functional VR-BP or GRGDSP (SEQ ID NO:18) peptides, respectively. Therefore, in a typical SAM array, SAMs were locally formed within spots using an alkanethiolate mixture of 94% HS—C11-EG3-OH and 6% HS—C11-EG6-COOH to create substrates with a total of 6% carboxylate groups for peptide conjugation. Next, to create a spot presenting 5% GRGDSP (SEQ ID NO:18) and 1% VR-BP, a 300 μM peptide solution with 250 μM GRGDSP (SEQ ID NO:18) and 50 μM VR-BP was used during peptide conjugation. Likewise, to create a spot presenting 2.5% GRGDSP (SEQ ID NO:18) and 0.1% VR-BP, a 300 μM peptide solution with 125 μM GRGDSP (SEQ ID NO:18), 125 μM GRGESP (SEQ ID NO:19), 5 μM VR-BP and 45 μM scrambled peptide was used during peptide conjugation. In this manner, the amount of active ligand could be varied between spots while holding the total ligand content constant.
Passage 2 HUVECs were expanded at low cell density (less than 70% confluence) on tissue culture polystyrene to no more than 14 population doublings. During HUVEC expansion, cells were cultured in medium 199 (m199, Mediatech, Manassas, Va.) containing 1% penicillin/streptomycin (Hyclone, Logan, Utah) and supplemented with Clonetics EGM-2 BullitKit (Lonza Walkersville, Inc., Walkersville, Md.) containing Hydrocortisone, hFGF-B, VEGF, R3-IGF-1, Ascorbic Acid, Heparin, FBS, hEGF, GA-1000 growth supplements. […]
Experiment [3] deals with HUVEC. As to the kind of experiment: HUVEC attachment to SAM spots presenting immobilized VR-BP. Type of experiment: cell-based, human. The settings on record: immobilized 1% VR-BP vs scrambled peptide, highest GRGDSP densities, 1 hour. The method, then: (§1) Passage 2 HUVECs were expanded at low cell density (less than 70% confluence) on tissue culture polystyrene to no more than 14 population doublings. During HUVEC expansion, cells were cultured in medium 199 (m199, Mediatech, Manassas, Va.) containing 1% penicillin/streptomycin (Hyclone, Logan, Utah) and supplemented with Clonetics EGM-2 BullitKit (Lonza Walkersville, Inc., Walkersville, Md.) containing Hydrocortisone, hFGF-B, VEGF, R3-IGF-1, Ascorbic Acid, Heparin, FBS, hEGF, GA-1000 growth supplements. NIH 3T3 cells were expanded in Dulbecco's modified eagles medium (DMEM, Mediatech, Manassas, Va.) containing 1% penicillin/streptomycin and supplemented with 5% cosmic calf serum (Hyclone, Logan, Utah). Before seeding on SAM arrays, HUVECs in cell culture flasks were starved for 24 hours in medium containing 2% FBS and then removed from the plate using a 0.05% trypsin solution and resuspended in m199 with 2% FBS. Cell suspension was seeded onto SAM arrays in sterile polystyrene Petri dishes and incubated in a humid environment at 37° C. and 5% CO2. After allowing cells to attach for ˜1 hr, arrays were dipped in warm m199 with 2% FBS to remove loosely attached cells and then transferred to a rectangular multidish (Thermo Scientific/Nunc, Rochester, N.Y.) containing warm media with 2% FBS and imaged ˜2 hours later serving as “0 hr”. […]

Experiment [4] concerns HUVEC. As to the kind of experiment: Endothelial tubulogenesis on SAM spots with matrigel overlay. Type of experiment: cell-based, human. On the procedure: Specifically, SAM arrays seeded overnight with 50,000 HUVECs/cm^2 were rinsed with warm media and then flipped over onto cold matrigel (Growth factor reduced matrigel, BD Biosciences, Bedford, Mass.) in a rectangular multidish well containing varied concentrations of soluble recombinant VEGF. Matrigel was allowed to gel for 5 minutes, and then the array and matrigel layer were covered with warm m199 with 2% FBS. Arrays were then placed in a TIZ Tokai Hit incubated, humidified stage at 37° C. and 5% CO2 and each array spot was imaged using phase contrast microscopy every 15 minutes for 48 hours. Image analysis was performed using NIS Elements software. The total cell area and length of individual objects were measured in each array spot at 24 hours after seeding. To measure mean length of capillary-like structures, each image was contrasted and thresholded using a standard method to isolate elongated objects for automated length measurements. All objects with a length less than 20 μm were excluded from length measurements. To measure total area occupied by cells, the images were contrasted and thresholded to isolate all cell bodies from the background for automated area measurements. Objects with a length less than 10 μm were excluded from area measurements. Tubulogenesis in each spot was quantified by normalizing the mean length of objects to total cell area in each array spot. SAM array spots were imaged using a Nikon Eclipse Ti inverted microscope with a 10×PhL objective, equipped with Nikon's Perfect Focus System. 10× images were stitched using Nikon NIS Elements software to capture entire array spots and cell counting was performed using the cell counting application in NIS Elements. Statistical analysis of all data sets was performed using a two-tailed student's t-test, where p<0.05 is used to denote statistical significance.

The next experiment deals with NIH 3T3 fibroblasts. As to the kind of experiment: NIH 3T3 attachment to SAM spots presenting immobilized VR-BP. Type of experiment: cell-based. The settings on record: immobilized 1% VR-BP vs scrambled peptide, 1 hour. The method, then: as §1
Experiment [5] deals with HUVEC. As to the kind of experiment: HUVEC survival and proliferation on SAM arrays presenting immobilized VR-BP with VEGF / SU5416. Type of experiment: cell-based, human. On the procedure:
as §1

Regarding “GRGESP [mutant peptide mixed with GRGDSP to control ligand density]”, the HUVEC attachment entry with HUVEC [1] is listed as “did not promote HUVEC attachment”.
On to KIPKASSVPTEL [BR-BP], for which the hMSC surface coverage entry with hMSC is reported as “maintained hMSC surface coverage”.
As to KLTWQELYQLKYKGI [VR-BP], the “HUVEC proliferation (EdU incorporation) compared to cells without stimulation” value in the experiment on HUVEC [2] is reported as “significant increases in proliferation”. Moreover, the HUVEC attachment result in the experiment with HUVEC [3] was “significantly decreased”. For the same substance, the “tubulogenesis (average tubule length per total cell area)” value in the experiment on HUVEC [4] (1% VR-BP vs 0% VR-BP, presence and absence of soluble VEGF) is “increased tubulogenesis”. In addition, the tubulogenesis result with HUVEC [4] (1% VR-BP vs lower VR-BP surfaces, absence of soluble VEGF) was “significantly increased”. Besides, the “NIH 3T3 attachment” value in the experiment on NIH 3T3 fibroblasts is “no effect”. For the same substance, the HUVEC proliferation entry in the experiment with HUVEC [5] (immobilized 1% VR-BP, in presence of soluble VEGF, high and low ligand densities) is “inhibited proliferation”. Also, the HUVEC survival result in the experiment with HUVEC [5] (immobilized VR-BP at 1% density, without soluble VEGF or in presence of SU5416) is “decreased HUVEC survival”.
For VEGF, the “HUVEC proliferation (EdU incorporation) compared to cells without stimulation” value in the experiment with HUVEC [2] is “increased HUVEC proliferation”. Also, the “tubulogenesis (average tubule length per total cell area)” value in the experiment on HUVEC [4] (soluble VEGF protein) is on record as “decreased tubulogenesis”.

The values are drawn from patent publication US8642516B2, “Chemically-defined arrays for screening cell-substrate interactions” (Wisconsin Alumni Research Foundation, priority 2012, dated 2014).
